{"source": "patent US20080267903A1", "about": "“Bioactive Polymers” (priority 2004, published 2008)", "key": {"[1]": {"conditions": "cited from earlier work"}, "[2]": {"system": "A431 epidermoid carcinoma cells", "experiment": "Cytostatic effects of cationic polymers on tumour cells in vitro (FIG. 1)", "type": "cell-based", "conditions": "lysis control", "protocol": "A431 epidermoid carcinoma cells were treated with various cationic polymers. PEI, Superfect and various DAB polymers were added to the culture medium at concentrations of 0.45 μL/mL, 5 μL/mL and 12.5 μg/mL respectively for the duration of the experiment."}, "[3]": {"experiment": "Systemic toxicity, tolerability and body weight after intravenous injection (FIG. 3)", "type": "in vivo", "procedure": "All formulations were prepared as solutions (or suspensions) in 5% dextrose. Each dose contained 250 μg of DAB 4, DAB 16, DAB 32, QDAB8, respectively. The PAMAM dendrimer and linear PEI were given as dilutions of Superfect (100 μl per animal) and Exgen (9 μl per animal) respectively, in 5% dextrose solution.\n(§4) Animals were injected intravenously (0.2 ml per injection) with the different formulations either once or alternatively on a schedule every other day (0.5 q.d.) over 10 days (every second day, 5 injection). […] Each group consisted of 5 animals (n=5). As a control DAB 16-DNA complexes were prepared as previously described [36] by mixing dendrimer and DNA (50 μg) at a 5:1 weight ratio in a 5% dextrose solution (200 μl/animal). Free plasmid DNA (50 μg) was given in 200 μL 5% dextrose. Animals were monitored at regular intervals, the tumour size was determined using callipers, and body weight measured and recorded."}, "[4]": {"system": "LS174T Human Colorectal Adenocarcinoma (ATCC CCL-188) xenografts", "experiment": "Established LS174T xenografts, treatment q.2d 5x (FIG. 4)", "type": "in vivo, mice", "conditions": "LS174T colorectal tumours, q.2d 5x i.v.", "protocol": "(§1) Female mice (CD1-nu, initial mean weight 20 g) were housed in groups of five in suspended plastic cages at 19-23° C. with a 12 h light-dark cycle. A conventional diet (Rat and Mouse Standard Expanded, B and K Universal, Grimston, UK) and water from the mains were available ad libidum. Experimental work was carried out in accordance with UK Home Office regulations and approved by the local ethics committee.\n(§2) Tumour cells [LS174 Human Colorectal Adenocarcinoma (ATCC CL-188), A431 Epidermoid Carcinoma (ATCC CRL-1555), C33a Human Cervix Carcinoma (ATCC HTB31)] were grown as monolayers in 75 cm^2 flasks in Dulbecco's Modified Eagle's Medium (DMEM) supplemented with 10% (v/v) foetal bovine serum (FBS) and 1% (v/v) glutamine, in a humid atmosphere of 5% CO2 at 37° C. Medium was changed twice a week. Cells were subcultured every seven days by trypsin treatment and experiments were conducted when the cells were in exponential phase. […]\n(§3) Animals were injected intravenously (0.2 ml per injection) with the different formulations either once or alternatively on a schedule every other day (0.5 q.d.) over 10 days (every second day, 5 injection). […] Animals were monitored at regular intervals, the tumour size was determined using callipers, and body weight measured and recorded. Expression of genes containined on nucleic acids complexed with the various polymers was measured as described previously."}, "[5]": {"system": "C33a Human Cervix Carcinoma (ATCC HTB31) xenografts", "experiment": "Established C33a xenografts, treatment q.2d 5x (FIG. 5)", "type": "in vivo, mice", "conditions": "C33a cervix carcinomas, q.2d 5x i.v.", "protocol": "as §1, §2, §3"}, "[6]": {"system": "A431 epidermoid carcinoma (ATCC CRL-1555)", "experiment": "Established A431 xenografts, repeated injection every 2nd day over 10 days, long-term follow-up (FIGS. 6-8)", "procedure": "A431 epidermoid carcinoma tumours were grafted into nude CD-1 mice and left to establish (˜5 mm). Animals were treated by injection of the relevant formulation every 2nd day over 10 days (5 injections). […] Tumour volume doubling time was measured as a surrogate endpoint as substantial tumour growth immediately precedes tumour related mortality.\nAll formulations were prepared as solutions (or suspensions) in 5% dextrose.\nas §4"}}, "note": "Where “and” joins values, the source holds several entries; their conditions need not be identical. Equal values may be shown once."}
{"compound": "N[C@@H](CO)C(=O)O", "note": "[Serine]", "values": [{"measurement": "pKa of the α-NH3+ group", "setting": "[1]", "value": 9.1}]}
{"compound": "N[C@@H](CC(=O)O)C(=O)O", "note": "[Aspartic acid]", "values": [{"measurement": "pKa of the α-NH3+ group", "setting": "[1]", "value": 10.0}]}
{"compound": "triton X", "values": [{"measurement": "cell number", "setting": "[2]", "value": "decrease in cell number consistent with cell lysis"}]}
{"compound": "NCCCN(CCCN)CCCN(CCCCN(CCCN(CCCN)CCCN)CCCN(CCCN)CCCN)CCCN(CCCN)CCCN", "note": "[DAB8]", "values": [{"measurement": "time to death after i.v. injection", "setting": "[3]", "value": "5 to 10", "unit": "s"}]}
{"compound": "C[C@H](N)C(=O)O", "note": "[Alanine]", "values": [{"measurement": "pKa of the α-NH3+ group", "setting": "[1]", "value": 9.9}]}
{"compound": "NCCCN(CCCN)CCCN(CCCN(CCCN)CCCN)CCCN(CCCCN(CCCN(CCCN(CCCN)CCCN)CCCN(CCCN)CCCN)CCCN(CCCN(CCCN)CCCN)CCCN(CCCN)CCCN)CCCN(CCCN(CCCN)CCCN)CCCN(CCCN)CCCN", "note": "[DAB16]", "values": [{"measurement": "tumour growth", "setting": "[4]", "value": "inhibited tumour growth significantly"}, {"measurement": "tumour growth", "setting": "[5]", "value": "inhibited tumour growth significantly"}, {"measurement": "survival of the treated mice", "setting": "[6]; 0.5 q.d. X5, long term experiment", "value": "long term survival"}, {"measurement": "complete disappearance of tumours, 2 mice", "setting": "[6]; 0.5 q.d. X5, n=5", "value": "43 days and 51 days"}, {"measurement": "start of decrease of the tumour size, 2 mice", "setting": "[6]; 0.5 q.d. X5, n=5", "value": 23, "unit": "days"}, {"measurement": "start of decrease of the tumour size, all the mice", "setting": "[6]; 0.5 q.d. X5, n=5", "value": 33, "unit": "days"}, {"measurement": "long-term tumour growth delay (tumour volume doubling time as surrogate endpoint)", "setting": "[6]; 5 injections over 10 days, FIG. 7", "value": "improved long-term growth reduction"}, {"measurement": "tumour growth", "setting": "[6]; A431 epidermoid carcinoma model, q.2d 5x i.v.", "value": "inhibited tumour growth significantly"}]}
